≈ marks a conversion by molar mass, not a printed value. Where two headings read alike, the source gives them in different places. Marks after values point to notes of the source that are not given here.
What was measured:
HepG2 cells = conditions: cited from earlier work
[1] = tested on: Plasmodium falciparum FCR3 (CQ,AT); experiment: [3H]hypoxanthine incorporation antimalarial assay, strain FCR3; format: cell-based; conditions: FCR3, 72 h, read-out: IC50 FCR3 (CQ,AT)
Method: (§1) The activity of the test compounds against P. falciparum in vitro was determined using the tritiated hypoxanthine incorporation assay of Desjardins et al. and additionally modified by Milhous and Chulay (Chulay, Haynes, & Diggs, [1983]; Milhous, Weatherly, Bowdre, & Desjardins, [1985]).
(§2) Compounds were dissolved in DMSO and subsequently diluted in the culture medium (RPMI 1640) supplemented with 10% v/v human plasma. Serial 1:2 drug dilutions were prepared in triplicate in microtitre plates. Culture medium supplemented with 10% v/v human plasma and type A Rhesus positive human erythrocytes infected with P. falciparum strains was added to yield a haematocrit of 3% and a parasitaemia of 0.25–0.55%. The plates were incubated at 37°C in a modular incubator flushed with a mixture of 5% oxygen, 3% carbon dioxide, and 92% nitrogen for 48 h, and then [^3H]hypoxanthine was added to give a final concentration of 12.5–16 μCi·ml^−1. After incubation for additional 24 h, particulate matter was harvested on fibreglass strips and hypoxanthine incorporation determined by scintillation spectrophotometry. […] Delayed death experiments were performed by this standard method but extending the incubation time with the drug up to 96 h.

[2] = tested on: Plasmodium falciparum V1/S (CQ,PY); experiment: microbe, parasite or virus in culture; format: cell-based; conditions: 72 h, read-out: IC50 V1/S (CQ,PY)
Method: as §1, §2

[3] = tested on: Plasmodium falciparum Dd2 (CQ,Q,PY,S); experiment: microbe, parasite or virus in culture; format: cell-based; conditions: for Delayed death phenotype: Dd2 and Dd2(AZ^R), 48 versus 96 h; for IC50: Plasmodium falciparum
Method: as §1, §2

[4] = Pharmacokinetics in P. falciparum infected and uninfected humanized mice; conditions: for Cmax / Tmax: NODscidβ2m^−/−, mouse, whole blood, po, 12.5 mg/kg; for Cmax: C max, blood; for Cmax / Tmax / DNAUC(0–24): oral 12.5 mg·kg^−1, mean (SD); for Tmax: t max; for I/U (DNAUC infected versus uninfected): humanized mice, oral 12.5 mg·kg^−1
Method: For pharmacokinetic (PK) studies in mice, animals were dosed either by intravenous (i.v.) or oral (p.o.) route.
For studies performed in Swiss albino CD‐1 mice (Harlan Laboratories, Spain), in order to obtain simultaneous blood and plasma profiles and blood‐to‐plasma (B/P) ratio, PK was performed using terminal sampling of N = 3 animals per time point and data evaluated using composite analysis. For studies performed in P. falciparum infected and non‐infected NODscidβ2m^−/− mice (Charles River Laboratories, France), only whole blood was obtained by serial sampling of N = 3 animals using tail puncture.
For analysis of whole blood samples, 25 μl of fresh blood were mixed with 25 μl of saponin solution (0.1% in water) and immediately frozen on dry ice. Plasma was obtained by centrifugation of fresh blood at 2,500 g for 10 min. Both blood and plasma samples were stored frozen at −80°C until analysis.
Diluted blood and plasma samples were processed under standard liquid–liquid extraction procedures using acetonitrile containing internal standard (clarithromycin, 100 ng·ml^−1) and analysed by LC–MS/MS in positive ion mode with electrospray. Samples were assayed for parent compound using a Sciex API 4000 and Sciex API‐2000 Triple Quadrupole Mass Spectrometer (Sciex, Division of MDS Inc., Toronto, Canada), against a series of matrix matched calibration curve standards, using multiple reaction monitoring (MRM) at the specific transitions for each compound. Non‐compartmental analysis was performed using WinNonlin, version 4.1 (Pharsight, Mountain View, CA), and the main pharmacokinetic parameters were estimated.

[5] = tested on: Plasmodium falciparum 7G8 (CQ, PY); experiment: [3H]hypoxanthine incorporation antimalarial assay, strain 7G8; format: cell-based
Method: as §1, §2

[6] = tested on: Plasmodium falciparum Dd2(AZ^R); experiment: [3H]hypoxanthine incorporation antimalarial assay, azithromycin-resistant mutant Dd2(AZ^R); format: cell-based
Method: as §1, §2

M. catarrhalis ATCC23246 = experiment: Antibacterial screen, broth microdilution; format: cell-based, Moraxella catarrhalis; conditions: Moraxella catarrhalis, ATCC23246; broth microdilution
Method: Antibacterial activity of compounds was determined by a standard broth microdilution method (Clinical Laboratory Standard Institute CLSI, [2009]), except that for Streptococcus strains lysed blood was substituted with 5% horse serum in the testing medium. […] The activities are expressed as minimum inhibitory concentrations (MICs) in units of μg·ml^−1. […] The organisms tested represented macrolide sensitive Gram‐positive pathogens that are mainly targeted by macrolide antibiotics. Tested streptococci were clinical isolates Streptococcus pneumoniae SP030 and Streptococcus pyogenes 3565 from internal strain collection, and other strains were obtained from ATCC bioresource centre, Staphylococcus aureus ATCC13709, Haemophilus influenzae ATCC49247, and Moraxella catarrhalis ATCC23246. Double dilutions of tested compounds were prepared using TECAN Genesis 150. Bacteria were grown on appropriate agar plates (Becton Dickinson, USA)—Columbia agar with 5% sheep blood for streptococci and M. catarrhalis, Mueller‐Hinton chocolate agar for H. influenzae , and Mueller‐Hinton agar for staphylococci.

[7] = tested on: Plasmodium falciparum T9/94 (CQ); experiment: [3H]hypoxanthine incorporation antimalarial assay, strain T9/94; format: cell-based; conditions: 72 h, read-out: IC50 T9/94 (CQ)
Method: as §1, §2

[8] = tested on: Plasmodium falciparum K1 (CQ,PY); experiment: [3H]hypoxanthine incorporation antimalarial assay, strain K1; format: cell-based
Method: as §1, §2

[9] = tested on: panel of five bacterial strains; experiment: Antibacterial screen, summary over panel of five bacterial strains; format: cell-based
Method: Antibacterial activity of compounds was determined by a standard broth microdilution method (Clinical Laboratory Standard Institute CLSI, [2009]), except that for Streptococcus strains lysed blood was substituted with 5% horse serum in the testing medium. Azithromycin and chloroquine were used as controls. The activities are expressed as minimum inhibitory concentrations (MICs) in units of μg·ml^−1. The compounds have been tested in at least two and up to five independent experiments generating same or similar results (a range of one to two dilutions between tests was considered acceptable which is in accordance to CLSI acceptable quality control ranges). The organisms tested represented macrolide sensitive Gram‐positive pathogens that are mainly targeted by macrolide antibiotics. Tested streptococci were clinical isolates Streptococcus pneumoniae SP030 and Streptococcus pyogenes 3565 from internal strain collection, and other strains were obtained from ATCC bioresource centre, Staphylococcus aureus ATCC13709, Haemophilus influenzae ATCC49247, and Moraxella catarrhalis ATCC23246. Double dilutions of tested compounds were prepared using TECAN Genesis 150. Bacteria were grown on appropriate agar plates (Becton Dickinson, USA)—Columbia agar with 5% sheep blood for streptococci and M. catarrhalis, Mueller‐Hinton chocolate agar for H. influenzae , and Mueller‐Hinton agar for staphylococci.

[10] = DD2, 48 h, read-out: IC50 Dd2 48 h
[11] = DD2, 72 h, read-out: IC50 Dd2 (CQ,Q,PY,S)
[12] = DD2, 96 h, read-out: IC50 Dd2 96 h
[13] = DD2, 48 h, read-out: IC50 Dd2(AZ^R) 48 h
[14] = DD2, 96 h, read-out: IC50 Dd2(AZ^R) 96 h
[15] = 7G8, 72 h, read-out: IC50 7G8 (CQ, PY)
[16] = K1, 72 h, read-out: IC50 K1 (CQ,PY)

| SMILES | IC50 [1] | IC50 [2] | Delayed death phenotype [3] | IC50 [3, 10] | IC50 [3, 11] | IC50 [3, 12] | Cmax ([4]; infected (I) humanized mice) | Cmax ([4]; uninfected (U) humanized mice) | Tmax ([4]; infected (I) humanized mice) | Tmax ([4]; uninfected (U) humanized mice) | I/U (DNAUC infected versus uninfected) [4] | DNAUC(0–24) ([4]; infected (I) humanized mice) | DNAUC(0–24) ([4]; uninfected (U) humanized mice) | IC50 [6, 13] | IC50 [6, 14] | MIC (M. catarrhalis ATCC23246) | IC50 [7] | IC50 [5, 15] | IC50 [8, 16] | antibacterial activity (in words) [9] | also measured |
| --- | --- | --- | --- | --- | --- | --- | --- | --- | --- | --- | --- | --- | --- | --- | --- | --- | --- | --- | --- | --- | --- |
| CC[C@H]1OC(=O)[C@H](C)[C@@H](O[C@H]2C[C@@](C)(OC)[C@@H](O)[C@H](C)O2)[C@H](C)[C@@H](O[C@@H]2O[C@H](C)C[C@H](N(C)C)[C@H]2O)[C@](C)(O)C[C@@H](C)CN(C)[C@H](C)[C@@H](O)[C@]1(C)O [Azithromycin, reference compound] | 2590 nM | 15900 nM | Yes | 3270 nM | 1590 nM | 81 nM | 344 ng/mL | 243 ng/mL | 1 h | 1.67 h | 1.1 | 161 (7) ng*h·ml^−1·mg^−1·kg^−1 | 146 (37) ng*h·ml^−1·mg^−1·kg^−1 | 3360 nM | 1480 nM | ≤ 0.125 µg/mL | 2720 nM |  |  |  | Tox50 HepG2 (HepG2 cells): 203 ^b μM; IC50 ([5]; 7G8, 72 h of incubation, N = 3, read-out: IC50 7G8 (CQ, PY)): 4590 nM; IC50 ([8]; K1, 72 h of incubation, N = 3, read-out: IC50 K1 (CQ,PY)): 2720 nM |
| CC[C@H]1OC(=O)[C@H](C)[C@@H](O[C@H]2C[C@@](C)(OC)[C@@H](O)[C@H](C)O2)[C@H](C)[C@@H](O[C@@H]2O[C@H](C)C[C@H](N(C)C)[C@H]2O)[C@](C)(O)C[C@@H](C)CN(CCCNc2ccnc3cc(Cl)ccc23)[C@H](C)[C@@H](O)[C@]1(C)O [Compound 1] | 22 nM | 28 nM | No | 17 nM | 25 nM | 12 nM | 775 ng/mL | 173 ng/mL | 1 h | 0.75 h | 2.1 | 362 (68) ng*h·ml^−1·mg^−1·kg^−1 | 169 (33) ng*h·ml^−1·mg^−1·kg^−1 | 21 nM | 11 nM | 2 µg/mL (≈ 2.1 µM) | 13 nM | 37 nM | 23 nM | inhibited the growth of whole cell bacteria | Tox50 HepG2 (HepG2 cells; ref Peric et al. ([2012])): 30 ^c μM |
| CC[C@H]1OC(=O)[C@H](C)[C@@H](O)[C@H](C)[C@@H](O[C@@H]2O[C@H](C)C[C@H](N(C)C)[C@H]2OCCCNc2ccnc3ccccc23)[C@](C)(O)C[C@@H](C)CN[C@H](C)[C@@H](O)[C@]1(C)O [Compound 3] | 22 nM | 30 nM | No | 24 nM | 30 nM | 22 nM | 348 ng/mL | 83.8 ng/mL | 1.67 h | 2.2 h | 3.9 | 354 (129) ng*h·ml^−1·mg^−1·kg^−1 | 91 (85) ng*h·ml^−1·mg^−1·kg^−1 | 27 nM | 23 nM | > 64 µg/mL | 21 nM | 17 nM | 24 nM | no antibacterial activity | Tox50 HepG2 (HepG2 cells; ref Pesic et al. ([2012])): 83 ^b μM |

— article PMC9328652, “A novel class of fast‐acting antimalarial agents: Substituted 15‐membered azalides” (British Journal of Pharmacology, 2020)
